Laboratory results from US10421751B2, “Dihydro-2H-benzo[b][1,4]oxazine sulfonamide and related compounds for use as agonists of RORγ and the treatment of disease” (Lycera Corporation, priority 2015, dated 2019).

Columns and labels:
[1] = biological target: T1, RORγ-LBD (Homo sapiens, UniProt P51449); assay: RORγ-Ligand Binding Domain (LBD) TR-FRET Assay; format: biochemical; settings: for EC50: in presence of 2 μM RORγ antagonist ursolic acid, SRC1 coactivator peptide; for TR-FRET Assay Max Response: upper plateau of 4-parameter fit, signal in the absence of ursolic acid or test compound set as 100
T1 construct: made in house; host or cells: SF9 cells, baculovirus expression system; used as diluted lysate
T1 sequence (P51449 269-508 limits assumed): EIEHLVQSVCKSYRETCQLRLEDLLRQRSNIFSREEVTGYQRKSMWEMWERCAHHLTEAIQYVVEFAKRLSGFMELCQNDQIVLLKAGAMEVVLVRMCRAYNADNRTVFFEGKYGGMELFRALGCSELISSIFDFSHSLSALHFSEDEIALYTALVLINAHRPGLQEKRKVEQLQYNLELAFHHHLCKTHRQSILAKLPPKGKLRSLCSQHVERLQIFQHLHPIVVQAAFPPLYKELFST
Procedure: HIS-tagged RORγ-LBD protein was expressed in SF9 cells using a baculovirus expression system. The lysate was diluted in assay buffer (50 mM Tris pH 7.0, 50 mM KCl, 1 mM EDTA, 0.1 mM DTT, 0.01% BSA) to obtain RORγ-LBD final concentration of ˜3 nM in a 384-well assay plate (need to titrate for each batch of protein).
A stock of biotinylated-LXXLL peptide from coactivator SRC1 (Biotin-[…]) was prepared in assay buffer and added to each well (200 nM final concentration). A solution of Europium tagged anti-HIS antibody (0.6 nM final concentration) and APC-conjugated streptavidin (30 nM final concentration) were also added to each well. RORγ antagonist ursolic acid was also included at a final concentration of 2 μM. Compounds were diluted in DMSO and further diluted in assay buffer with a final DMSO concentration at 1%.
The final assay mixture was incubated overnight at 4° C. or 2 hours at room temperature, and the fluorescence signal was measured on an Envision plate reader: (Excitation filter=340 nm; APC emission=665 nm; Europium emission=615 nm; dichroic mirror=D400/D630; delay time=100 μs, integration time=200 μs). 50% Effective concentration (EC50) values for test compounds were calculated from the quotient of the fluorescence signal at 665 nm divided by the fluorescence signal at 615 nm. The quotient of the fluorescence signals in the absence of ursolic acid or test compound is set as 100. Max Response is defined as the upper plateau in the signal as determined by line-fit using a 4-parameter logistic model in PRISM (GraphPad).

[2] = biological target: T2, Gal4-RORγ-LBD (Homo sapiens, UniProt P51449); assay: Gal4-RORγ Luciferase Reporter Assay in HEK-293T Cells; format: cell-based; settings: for EC50: HEK-293 cells, in presence of 2 μM ursolic acid, overnight incubation, read-out: Ga14-RORγ Assay EC50; for Ga14-RORγ Assay Max Response: upper plateau of 4-parameter fit, luciferase signal in the absence of ursolic acid or test compound defined at 100
T2 construct: expressed in transfected cells; pcDNA3.1neo plasmid, co-transfected with pGL4.31 Gal4-luciferase reporter
T2 sequence (P51449 269-508 limits assumed): T1 sequence (P51449 269-508 limits assumed)
Procedure: In the following protocol, HEK-293 cells were transfected with a construct comprising the Gal4 DNA binding domain fused to the ligand binding domain of RORγ (Gal4-RORγ-LBD) in a pcDNA3.1neo plasmid, and also with a reporter construct comprising pGL4.31 Gal4-luciferase (Promega). Control cells were prepared similarly using empty pcDNA3.1neo and pGL4.31 vectors.
Trans-IT reagent (Mirus, 60 μL) at room temperature was added drop wise to OptiMEM (Invitrogen, 1.5 ml). This reagent mixture was mixed by inversion then incubated for 5 to 30 minutes at room temperature. It then was added to a solution of both expression vectors (5 μg each), mixed, and incubated at room temperature for about 20 minutes. HEK-293 cells were harvested from incubation flasks by removing the media, treating with TrypLE Express (Invitrogen), and incubating until the cells detached from the bottom of the flask (approximately 2-5 minutes). 10 Million cells were collected by centrifugation and re-suspended in 10 mL of Dulbecco's Modified Eagle Medium, High Glucose (DMEM, Invitrogen) containing 10% Fetal Bovine Serum and 100 IU each of penicillin and streptomycin. The re-suspended cells and the transfection mixture were added to a T75 flask, mixed and incubated overnight at 37° C. and 5% CO2.
The cells were harvested as described above, counted, and centrifuged to obtain the desired number of cells, then re-suspended in complete growth media at 0.75×10^6 cells/mL. The RORγ antagonist, ursolic acid, was added to the cells at a final concentration of 2 μM. Cells were plated at 20 μL of cell suspension/well (10,000-15,000 cells/well) in white tissue culture treated 384 well plates. Test compounds were dissolved at 10 mM in DMSO then diluted into complete growth medium to 5× the final intended test concentration. These drug stock solutions, 5 μL/well were added to the tissue culture plate. The final DMSO concentration was 0.2%. The plates were briefly centrifuged then incubated overnight at 37° C. and 5% CO2. To conduct the assay, the tissue culture plates were allowed to equilibrate to room temperature and One-Glo luciferase reagent (Promega, 25 μL/well) was added. The plates were briefly centrifuged then incubated at room temperature for 10 minutes. The luciferase intensity was read on an Envision plate reader (Perkin Elmer). RORγ activity was determined relative to controls and plotted as a function of test compound concentration using PRISM (GraphPad) to determine a 50% effective concentration (EC50). The luciferase signal in the absence of ursolic acid or test compound is defined at 100. The Max Response is the upper plateau in the signal as determined by line-fit using a 4-parameter logistic model in PRISM (GraphPad).

Row | EC50 [1] [nM] | EC50 [2] [nM] | SMILES | TR-FRET Assay Max Response [1] | Ga14-RORγ Assay Max Response [2]
1 | < 100 | 100 to 5000 | C/C(=C\c1ccc2c(c1)N(S(=O)(=O)c1cccc(C(F)(F)F)c1)C[C@H](CCn1ccnc1)O2)c1c(F)cccc1Cl | *** (a value in the range of greater than 150 to 200) | ** (a value in the range of greater than 90 to 150)
2 | < 100 | 100 to 5000 | CCn1cc(S(=O)(=O)N2C[C@H](CCOc3noc(=O)[nH]3)Oc3ccc(/C=C(\C)c4c(F)cccc4Cl)cc32)c(Cl)n1 | *** (a value in the range of greater than 150 to 200) | *** (a value in the range of greater than 150 to 200)
3 | < 100 | 100 to 5000 | COc1cc(S(=O)(=O)N2C[C@H](CCc3n[nH]c(=O)o3)Oc3ccc(/C=C(\C)c4c(F)cccc4Cl)cc32)ccc1F | ** (a value in the range of greater than 90 to 150) | ** (a value in the range of greater than 90 to 150)
4 | < 100 | 100 to 5000 | C/C(=C\c1ccc2c(c1)N(S(=O)(=O)c1cccc(C(F)(F)F)c1)C[C@H](CCc1noc(=O)[nH]1)O2)c1c(F)cccc1Cl | *** (a value in the range of greater than 150 to 200) | *** (a value in the range of greater than 150 to 200)
5 | < 100 | 100 to 5000 | C/C(=C\c1ccc2c(c1)N(S(=O)(=O)c1cccc(C(F)(F)F)c1)C[C@H](CCCn1cc(C(=O)O)nn1)O2)c1c(F)cccc1Cl | *** (a value in the range of greater than 150 to 200) | ** (a value in the range of greater than 90 to 150)
6 | < 100 | 100 to 5000 | CCn1cc(S(=O)(=O)N2C[C@H](CCc3n[nH]c(=O)o3)Oc3ccc(/C=C/c4c(Cl)cccc4C(F)(F)F)cc32)c(OCCO)n1 | **** (a value greater than 200) | ** (a value in the range of greater than 90 to 150)
7 | < 100 | 100 to 5000 | C/C(=C\c1ccc2c(c1)N(S(=O)(=O)c1cccc(C(F)(F)F)c1)[C@H](C)[C@H](Cn1cccn1)C2)c1c(F)cccc1Cl | *** (a value in the range of greater than 150 to 200) | ** (a value in the range of greater than 90 to 150)
8 | < 100 | 100 to 5000 | CCOc1ncc(C(F)(F)F)cc1S(=O)(=O)N1C[C@H](CCc2n[nH]c(=O)o2)Oc2ccc(/C=C(\C)c3c(F)cccc3Cl)cc21 | **** (a value greater than 200) | ** (a value in the range of greater than 90 to 150)
9 | < 100 | 100 to 5000 | C/C(=C\c1ccc2c(c1)N(S(=O)(=O)c1cccc(C(F)(F)F)c1)C[C@H](CCc1n[nH]c(=O)o1)O2)c1c(F)cccc1Cl | ** (a value in the range of greater than 90 to 150) | ** (a value in the range of greater than 90 to 150)
10 | < 100 | 100 to 5000 | COc1cc(S(=O)(=O)N2C[C@H](CCOc3noc(=O)[nH]3)Oc3ccc(/C=C(\C)c4c(F)cccc4Cl)cc32)ccc1F | *** (a value in the range of greater than 150 to 200) | **** (a value greater than 200)
11 | < 100 | 100 to 5000 | C/C(=C\c1ccc2c(c1)N(S(=O)(=O)c1cccc(C(F)(F)F)c1)C[C@H](CCCn1cccn1)O2)c1c(F)cccc1Cl | *** (a value in the range of greater than 150 to 200) | ** (a value in the range of greater than 90 to 150)
12 | < 100 | 5000 to 10000 | C/C(=C\c1ccc2c(c1)N(S(=O)(=O)c1cccc(C(F)(F)F)c1)C[C@H](Oc1n[nH]c(=O)[nH]1)C2)c1c(F)cccc1Cl | *** (a value in the range of greater than 150 to 200) | ** (a value in the range of greater than 90 to 150)
13 | 100 to 5000 | 100 to 5000 | C/C(=C\c1ccc2c(c1)N(S(=O)(=O)c1cccc(C(F)(F)F)c1)C[C@H](CCCc1noc(=O)[nH]1)O2)c1c(F)cccc1Cl | *** (a value in the range of greater than 150 to 200) | ** (a value in the range of greater than 90 to 150)
14 | < 100 | 100 to 5000 | C/C(=C\c1ccc2c(c1)N(S(=O)(=O)c1cccc(C(F)(F)F)c1)C[C@H](CCOc1noc(=O)[nH]1)O2)c1c(F)cccc1Cl | *** (a value in the range of greater than 150 to 200) | ** (a value in the range of greater than 90 to 150)
15 | < 100 | > 10000 | C/C(=C\c1ccc2c(c1)N(S(=O)(=O)c1cccc(C(F)(F)F)c1)[C@H](C)[C@H](Cn1ccnn1)C2)c1c(F)cccc1Cl | *** (a value in the range of greater than 150 to 200) | * (a value in the range of 40 to 90)
16 | < 100 | 100 to 5000 | C/C(=C\c1ccc2c(c1)N(S(=O)(=O)c1cccc(C(F)(F)F)c1)C[C@H](CCCn1ccnc1)O2)c1c(F)cccc1Cl | *** (a value in the range of greater than 150 to 200) | ** (a value in the range of greater than 90 to 150)
17 | < 100 | 100 to 5000 | CCOc1ncc(Cl)cc1S(=O)(=O)N1C[C@H](CCc2n[nH]c(=O)o2)Oc2ccc(/C=C(\C)c3c(F)cccc3Cl)cc21 | *** (a value in the range of greater than 150 to 200) | ** (a value in the range of greater than 90 to 150)
18 | < 100 | 100 to 5000 | C/C(=C\c1ccc2c(c1)N(S(=O)(=O)c1cccc(C(F)(F)F)c1)C[C@H](CCn1cc(C(=O)O)nn1)O2)c1c(F)cccc1Cl | *** (a value in the range of greater than 150 to 200) | *** (a value in the range of greater than 150 to 200)
19 | < 100 | 100 to 5000 | CCOc1nn(CC)cc1S(=O)(=O)N1C[C@H](CCc2n[nH]c(=O)o2)Oc2ccc(/C=C/c3c(Cl)cccc3C(F)(F)F)cc21 | **** (a value greater than 200) | ** (a value in the range of greater than 90 to 150)
20 | < 100 | 100 to 5000 | C/C(=C\c1ccc2c(c1)N(S(=O)(=O)c1cccc(C(F)(F)F)c1)[C@H](C)[C@H](Cn1ccnc1)C2)c1c(F)cccc1Cl | *** (a value in the range of greater than 150 to 200) | ** (a value in the range of greater than 90 to 150)
